Experiments:
Cys-P1-tagged GPCR = test: peptide-templated labeling of Cys-P1-tagged GPCRs in live HEK293 cells; assay type: cell-based; conditions: n=3; for fluorescent labeling: Cys-P1-ETAR-GFP, 200 nM probe
Cys-P3-tagged GPCR = test: peptide-templated labeling of Cys-P3-tagged GPCRs in live HEK293 cells; assay type: cell-based; conditions: n=3; for fluorescent labeling: 200 nM probe
ETAR = conditions: competitive antagonist; ref [36]; cited from earlier work
ETBR-GFP = test: Ca2+ flux, COS-7, ETBR-GFP co-transfected with other GPCRs; assay type: cell-based; conditions: mock+sitaxentan vs mock+vehicle (no ETAR expression)
ETBR = conditions: competitive antagonist; ref [36]; cited from earlier work

KIAQLKQ KIQALKQ ENQQLEE ENAALEY [TAMRA‐P4]
cross-reactivity labeling (Cys-P1-tagged GPCR; Cys-P1-ETBR-GFP with non-complementary probe): no successful TAMRA labeling was detectable
fluorescent labeling (Cys-P3-tagged GPCR; Cys-P3-ETAR-GFP): successfully labeled
labeling with complementary probe (Cys-P3-tagged GPCR; Cys-P3-ETAR-GFP): Rapid TAMRA staining within 5 min

TAMRA‐MPAA‐GSGSG
fluorescent labeling (Cys-P1-tagged GPCR): no labeling of GFP‐positive cells was detectable
fluorescent labeling (Cys-P3-tagged GPCR; Cys-P3-ETAR-GFP): no labeling of GFP‐positive cells was detectable

Cc1cc2c(cc1CC(=O)c1sccc1S(=O)(=O)Nc1onc(C)c1Cl)OCO2 [sitaxentan]
IC50 (ETAR): ~0.001 µM
effect on ET-1 efficacy and potency at ETBR (ETBR-GFP): No differences in both ligand efficacy and potency
IC50 (ETBR): ~10 µM

KIAQLKE KNAALKE KNQQLKE KIQALKY [TAMRA‐P2, 6‐carboxytetramethyl‐rhodamine (TAMRA)‐P2]
fluorescent labeling (Cys-P1-tagged GPCR): successfully labeled
labeling with complementary probe (Cys-P1-tagged GPCR; Cys-P1-ETBR-GFP): Rapid TAMRA staining within 5 min
cross-reactivity labeling (Cys-P3-tagged GPCR; Cys-P3-ETAR-GFP with non-complementary probe): no successful TAMRA labeling was detectable

From PMC9298254 (Chembiochem, 2021)
